Earlier results on one compound are cited in patent US12622900B2, “Methods and compositions for treating gastric ulcers” (LUODA PHARMA LIMITED, priority 2015, dated 2026).

The structures appear in SMILES notation.

One series deals with gastric acid secretion. Conditions: single intramuscular injection at 1 mg/kg bodyweight, omeprazole monohydrate dissolved in saline.
The next series concerns gastric ulcers. Conditions: traditional oral dosing.

`COc1ccc2nc([S+]([O-])Cc3ncc(C)c(OC)c3C)[nH]c2c1` (stereo not drawn) [omeprazole, 6-methoxy-2-[(4-methoxy-3,5-dimethylpyridin-2-yl)methanesulfinyl]-1H-1,3-benzodiazole]: in the series with gastric acid secretion, the “Duration of pentagastrin-stimulated acid suppression” value was 12 h and the “Duration of reduced basal acid secretion” value was “around 23 hours”. For the same compound, the “Period for which the dose is effective” value in the series with gastric acid (1-2 g daily oral dose to horses) is 12 to 24 h. For the same compound, in the series with gastric acid (oral omeprazole preparations in horses (Merritt et al)), the “Duration of adequate gastric acid suppression” value was 12 h. The Gastric ulcers healed in the series on gastric ulcers (in 28-35 days) is 25%. Moreover, the “Squamous ulcers that will heal” value with gastric ulcers (within a 28 day treatment period) was 70-80%.
